Laboratory results: ChEMBL document CHEMBL4152317, “Engineering potent mesotrypsin inhibitors based on the plant-derived cyclic peptide, sunflower trypsin inhibitor-1” (Eur J Med Chem, 2018)
Where a SMILES comes first, the peptide text is derived from it. Bridges are numbered along the chain shown (N, C = ends). [ ]: non-standard residue; d: D form. Bip = N[C@@H](Cc1ccc(-c2ccccc2)cc1)C(=O)O; 2Nal = N[C@@H](Cc1ccc2ccccc2c1)C(=O)O

How the values were obtained:
Serine protease 1 [1] = biological target: T1, Serine protease 1 (Homo sapiens, UniProt P07477); test: Inhibition of human cationic trypsin using Boc-VPR-MCA as substrate measured every 30 secs for 10 mins
T1 sequence (P07477 whole entry): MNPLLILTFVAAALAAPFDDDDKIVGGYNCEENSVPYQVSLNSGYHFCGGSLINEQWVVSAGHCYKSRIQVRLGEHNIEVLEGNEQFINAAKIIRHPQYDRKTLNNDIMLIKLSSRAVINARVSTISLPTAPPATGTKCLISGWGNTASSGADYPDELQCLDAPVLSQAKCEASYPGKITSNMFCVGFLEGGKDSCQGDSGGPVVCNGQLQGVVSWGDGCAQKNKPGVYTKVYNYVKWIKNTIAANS

Trypsin-3 = biological target: T2, Trypsin-3 (Homo sapiens, UniProt P35030); test: Competitive inhibition of recombinant human mesotrypsin using Z-GPR-MCA as substrate measured every 30 secs for 10 mins
T2 sequence (P35030 whole entry): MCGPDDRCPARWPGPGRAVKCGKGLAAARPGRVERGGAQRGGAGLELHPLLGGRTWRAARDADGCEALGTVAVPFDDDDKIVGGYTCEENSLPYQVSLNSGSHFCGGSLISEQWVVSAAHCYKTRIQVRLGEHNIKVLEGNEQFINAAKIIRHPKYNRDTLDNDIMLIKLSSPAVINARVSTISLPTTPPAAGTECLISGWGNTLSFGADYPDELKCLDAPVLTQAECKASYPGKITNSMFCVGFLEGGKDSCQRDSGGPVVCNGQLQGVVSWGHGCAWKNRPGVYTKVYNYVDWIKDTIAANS

Trypsin-3 (Homo sapiens) = biological target: T3, Trypsin-3 (Homo sapiens) (UniProt P35030); test: Potency index, ratio of SFTI-1 Ki to test compound Ki for recombinant human mesotrypsin
T3 sequence (whole entry): T2 sequence (P35030 whole entry)

Serine protease 1 [2] = biological target: T1, Serine protease 1; test: Potency index, ratio of SFTI-1 Ki to test compound Ki for human cationic trypsin
Serine protease 1 [3] = biological target: T4, Serine protease 1 (Bos taurus, UniProt P00760); test: Inhibition of bovine beta-trypsin using Boc-QAR-MCA as substrate measured every 30 secs for 10 mins
T4 sequence (P00760 whole entry): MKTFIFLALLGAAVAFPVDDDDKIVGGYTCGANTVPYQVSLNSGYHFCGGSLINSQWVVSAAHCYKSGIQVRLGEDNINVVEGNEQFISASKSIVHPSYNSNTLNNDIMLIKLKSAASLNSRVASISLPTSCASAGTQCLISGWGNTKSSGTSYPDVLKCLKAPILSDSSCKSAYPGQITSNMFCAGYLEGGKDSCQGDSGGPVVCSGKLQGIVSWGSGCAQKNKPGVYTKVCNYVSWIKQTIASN

[4] = biological target: T5, Serine protease 1 (Bos taurus) (UniProt P00760); test: Potency index, ratio of SFTI-1 Ki to test compound Ki for bovine beta-trypsin
T5 sequence (whole entry): T4 sequence (P00760 whole entry)

[5] = biological target: T6, Suppressor of tumorigenicity 14 protein (Homo sapiens) (UniProt Q9Y5Y6); test: Inhibition of recombinant human matriptase at 50 uM using Boc-QAR-MCA as substrate measured every 30 secs for 10 mins relative to control
T6 sequence (whole entry): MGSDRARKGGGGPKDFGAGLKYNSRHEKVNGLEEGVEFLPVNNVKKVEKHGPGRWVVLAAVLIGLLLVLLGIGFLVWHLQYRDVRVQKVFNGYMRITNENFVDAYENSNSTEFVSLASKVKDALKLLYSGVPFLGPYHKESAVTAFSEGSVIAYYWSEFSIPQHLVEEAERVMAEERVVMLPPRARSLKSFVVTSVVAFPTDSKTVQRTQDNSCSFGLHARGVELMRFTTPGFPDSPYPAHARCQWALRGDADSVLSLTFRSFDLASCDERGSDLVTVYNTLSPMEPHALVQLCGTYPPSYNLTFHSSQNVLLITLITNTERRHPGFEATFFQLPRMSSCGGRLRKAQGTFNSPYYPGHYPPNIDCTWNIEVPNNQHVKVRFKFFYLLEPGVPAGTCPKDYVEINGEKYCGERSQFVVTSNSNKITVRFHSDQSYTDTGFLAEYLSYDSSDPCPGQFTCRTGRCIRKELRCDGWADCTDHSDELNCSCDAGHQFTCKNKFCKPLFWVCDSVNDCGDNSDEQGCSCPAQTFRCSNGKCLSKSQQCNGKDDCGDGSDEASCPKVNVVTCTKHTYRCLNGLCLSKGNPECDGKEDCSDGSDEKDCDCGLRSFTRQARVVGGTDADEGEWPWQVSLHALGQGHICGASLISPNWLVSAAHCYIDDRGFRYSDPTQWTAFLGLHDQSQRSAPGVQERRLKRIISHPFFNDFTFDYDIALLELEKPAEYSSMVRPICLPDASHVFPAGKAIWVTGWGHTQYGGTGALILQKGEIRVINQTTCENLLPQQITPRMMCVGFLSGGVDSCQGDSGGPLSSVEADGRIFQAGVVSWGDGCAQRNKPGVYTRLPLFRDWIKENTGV

Prothrombin [6] = biological target: T7, Prothrombin (Homo sapiens, UniProt P00734); test: Inhibition of human alpha thrombin at 50 uM using Boc-VPR-MCA as substrate measured every 30 secs for 10 mins relative to control
[7] = biological target: Chymotrypsinogen A (Bos taurus) (UniProt P00766); test: Inhibition of bovine alpha-chymotrypsin at 50 uM using Suc-AAPF-MCA as substrate measured every 30 secs for 10 mins relative to control
[8] = biological target: T8, Suppressor of tumorigenicity 14 protein (Homo sapiens, UniProt Q9Y5Y6); test: Inhibition of recombinant human matriptase using Boc-QAR-MCA as substrate measured every 30 secs for 10 mins
T8 sequence (Q9Y5Y6 whole entry): T6 sequence (whole entry)

Prothrombin [9] = biological target: T7, Prothrombin; test: Inhibition of human alpha thrombin using Boc-VPR-MCA as substrate measured every 30 secs for 10 mins
Chymotrypsinogen A = Chymotrypsinogen A (Bos taurus, UniProt P00766); test: Inhibition of bovine alpha-chymotrypsin using Suc-AAPF-MCA as substrate measured every 30 secs for 10 mins

Structure (SMILES) | Ki (Serine protease 1 [1]) [nM] | Ki (Trypsin-3) [nM] | Ratio Ki (Trypsin-3 (Homo sapiens)) | Ratio Ki (Serine protease 1 [2]) | Ki (Serine protease 1 [3]) [nM] | Ratio Ki [4] | inhibition [5] [%] | inhibition (Prothrombin [6]) [%] | inhibition [7] [%] | IC50 [8] [nM] | IC50 (Prothrombin [9]) [nM] | IC50 (Chymotrypsinogen A) [nM]
CC[C@H](C)[C@@H]1NC(=O)[C@@H]2CCCN2C(=O)[C@@H]2CCCN2C(=O)[C@H]([C@@H](C)CC)NC(=O)[C@H](CO)NC(=O)[C@H](CCCCN)NC(=O)[C@H]([C@@H](C)O)NC(=O)[C@@H]2CSSC[C@H](NC1=O)C(=O)N[C@@H](Cc1ccccc1)C(=O)N1CCC[C@H]1C(=O)N[C@@H](CC(=O)O)C(=O)NCC(=O)N[C@@H](CCCNC(=N)N)C(=O)N2 | 0.03 |  |  |  |  |  |  |  |  |  |  | 
CC[C@H](C)[C@@H]1NC(=O)[C@@H]2CCCN2C(=O)[C@@H]2CCCN2C(=O)[C@H](CC(=O)O)NC(=O)[C@H](CO)NC(=O)[C@H](CCCCN)NC(=O)[C@H]([C@@H](C)O)NC(=O)[C@@H]2CSSC[C@H](NC1=O)C(=O)N[C@@H](Cc1ccccc1)C(=O)N1CCC[C@H]1C(=O)N[C@@H](CC(=O)O)C(=O)NCC(=O)N[C@@H](CCCNC(=N)N)C(=O)N2 (cyclo(CFPDGRCTKSDPPI); disulfide 1-7) |  | 402 | 12 |  |  |  |  |  |  |  |  | 
CC[C@H](C)[C@@H]1NC(=O)[C@@H]2CCCN2C(=O)[C@@H]2CCCN2C(=O)[C@H](Cc2ccccc2)NC(=O)[C@H](CO)NC(=O)[C@H](CCCCN)NC(=O)[C@H]([C@@H](C)O)NC(=O)[C@@H]2CSSC[C@H](NC1=O)C(=O)N[C@@H](Cc1ccccc1)C(=O)N1CCC[C@H]1C(=O)N[C@@H](CC(=O)O)C(=O)NCC(=O)N[C@@H](CCCNC(=N)N)C(=O)N2 (cyclo(CFPDGRCTKSFPPI); disulfide 1-7) |  | 45 | 110 |  |  |  |  |  |  |  |  | 
CC[C@H](C)[C@@H]1NC(=O)[C@@H]2CCCN2C(=O)[C@@H]2CCCN2C(=O)CNC(=O)[C@H](CO)NC(=O)[C@H](CCCCN)NC(=O)[C@H]([C@@H](C)O)NC(=O)[C@@H]2CSSC[C@H](NC1=O)C(=O)N[C@@H](Cc1ccccc1)C(=O)N1CCC[C@H]1C(=O)N[C@@H](CC(=O)O)C(=O)NCC(=O)N[C@@H](CCCNC(=N)N)C(=O)N2 (cyclo(CFPDGRCTKSGPPI); disulfide 1-7) | 49 | 134 | 37 | 1630 | 81 | 10100 | < 50 | < 50 | < 50 | > 50000 | > 50000 | > 50000
CC[C@H](C)[C@@H]1NC(=O)[C@@H]2CCCN2C(=O)[C@@H]2CCCN2C(=O)[C@H](CO)NC(=O)[C@H](CO)NC(=O)[C@H](CCCCN)NC(=O)[C@H]([C@@H](C)O)NC(=O)[C@@H]2CSSC[C@H](NC1=O)C(=O)N[C@@H](Cc1ccccc1)C(=O)N1CCC[C@H]1C(=O)N[C@@H](CC(=O)O)C(=O)NCC(=O)N[C@@H](CCCNC(=N)N)C(=O)N2 (cyclo(CFPDGRCTKSSPPI); disulfide 1-7) |  | 335 | 15 |  |  |  |  |  |  |  |  | 
CC[C@H](C)[C@@H]1NC(=O)[C@@H]2CCCN2C(=O)[C@@H]2CCCN2C(=O)CNC(=O)[C@H](CO)NC(=O)[C@H](CCCNC(=N)N)NC(=O)[C@H]([C@@H](C)O)NC(=O)[C@@H]2CSSC[C@H](NC1=O)C(=O)N[C@@H](Cc1ccccc1)C(=O)N1CCC[C@H]1C(=O)N[C@@H](CC(=O)O)C(=O)NCC(=O)N[C@@H](CCCNC(=N)N)C(=O)N2 (cyclo(CFPDGRCTRSGPPI); disulfide 1-7) | 100 | 369 | 13 | 3330 | 196 | 24500 |  |  |  |  |  | 
CC[C@H](C)[C@@H]1NC(=O)[C@@H]2CCCN2C(=O)[C@@H]2CCCN2C(=O)[C@H](Cc2ccc3ccccc3c2)NC(=O)[C@H](CO)NC(=O)[C@H](CCCCN)NC(=O)[C@H]([C@@H](C)O)NC(=O)[C@@H]2CSSC[C@H](NC1=O)C(=O)N[C@@H](Cc1ccccc1)C(=O)N1CCC[C@H]1C(=O)N[C@@H](CC(=O)O)C(=O)NCC(=O)N[C@@H](CCCNC(=N)N)C(=O)N2 (cyclo([2Nal]PPICFPDGRCTKS); disulfide 5-11) | 0.87 | 26 | 191 | 29 | 0.046 | 6 |  |  |  |  |  | 
CC[C@H](C)[C@@H]1NC(=O)[C@@H]2CCCN2C(=O)[C@@H]2CCCN2C(=O)[C@H](Cc2ccc3ccccc3c2)NC(=O)[C@H](CO)NC(=O)[C@H](CCCNC(=N)N)NC(=O)[C@H]([C@@H](C)O)NC(=O)[C@@H]2CSSC[C@H](NC1=O)C(=O)N[C@@H](Cc1ccccc1)C(=O)N1CCC[C@H]1C(=O)N[C@@H](CC(=O)O)C(=O)NCC(=O)N[C@@H](CCCNC(=N)N)C(=O)N2 (cyclo([2Nal]PPICFPDGRCTRS); disulfide 5-11) | 2.6 | 38 | 131 | 87 | 0.23 | 29 |  |  |  |  |  | 
CC[C@H](C)[C@@H]1NC(=O)[C@@H]2CCCN2C(=O)[C@@H]2CCCN2C(=O)[C@H](Cc2ccc(-c3ccccc3)cc2)NC(=O)[C@H](CO)NC(=O)[C@H](CCCCN)NC(=O)[C@H]([C@@H](C)O)NC(=O)[C@@H]2CSSC[C@H](NC1=O)C(=O)N[C@@H](Cc1ccccc1)C(=O)N1CCC[C@H]1C(=O)N[C@@H](CC(=O)O)C(=O)NCC(=O)N[C@@H](CCCNC(=N)N)C(=O)N2 (cyclo([Bip]PPICFPDGRCTKS); disulfide 5-11) | 0.76 | 35 | 142 | 25 | 0.062 | 8 |  |  |  |  |  | 
CC[C@H](C)[C@@H]1NC(=O)[C@@H]2CCCN2C(=O)[C@@H]2CCCN2C(=O)[C@H](Cc2ccc(-c3ccccc3)cc2)NC(=O)[C@H](CO)NC(=O)[C@H](CCCNC(=N)N)NC(=O)[C@H]([C@@H](C)O)NC(=O)[C@@H]2CSSC[C@H](NC1=O)C(=O)N[C@@H](Cc1ccccc1)C(=O)N1CCC[C@H]1C(=O)N[C@@H](CC(=O)O)C(=O)NCC(=O)N[C@@H](CCCNC(=N)N)C(=O)N2 (cyclo([Bip]PPICFPDGRCTRS); disulfide 5-11) | 1.9 | 28 | 177 | 63 | 0.17 | 21 |  |  |  |  |  | 
